From patent publication US10829458B2 (Araxes Pharma LLC, priority 2015, dated 2020)

Target: T1, KRAS G12C 1-169, his-tagged protein, GDP-loaded (Homo sapiens, UniProt P01116, G12C)
T1 construct: KRAS G12C 1-169, his-tagged protein, GDP-loaded
Assay: Biochemical assay: covalent modification of KRAS G12C measured by mass spectrometry (RapidFire/TOF or Q-Exactive)
Conditions: covalent binding to KRAS G12C; compounds of structure (I)
Method: Test compounds were prepared as 10 mM stock solutions in DMSO (Fisher cat #BP-231-100). KRAS G12C 1-169, his-tagged protein, GDP-loaded was diluted to 2 μm in buffer (20 mM Hepes, 150 mM NaCl, 1 mM MgCl2). Compounds were tested for activity as follows:
Compounds were diluted to 50× final test concentration in DMSO in 96-well storage plates. Compound stock solutions were vortexed before use and observed carefully for any sign of precipitation. Dilutions were as follow: • For 100 μM final compound concentration, compounds were diluted to 5000 μM (5 μl 10 mM compound stock+5 μl DMSO and mixed well by pipetting. • For 30 μM final compound concentration, compounds were diluted to 1500 μM (3 μl 10 mM compound stock+17p DMSO) and mixed well by pipetting. • For 10 μM final compound concentration, compounds were diluted to 500 μM (2 μl 10 mM compound stock+38p DMSO) and mixed well by pipetting. 49p of the stock protein solution was added to each well of a 96-well PCR plate (Fisher cat #1423027). 1 μl of the diluted 50× compounds were added to appropriate wells in the PCR plate using 12-channel pipettor. Reactions were mixed carefully and thoroughly by pipetting up/down with a 200·1 multi-channel pipettor. The plate was sealed well with aluminum plate seal, and stored in drawer at room temperature for 30 min, 2 hour or 24 hrs. 5·1 of 2% formic acid (Fisher cat #A117) in DI H2O was then added to each well followed by mixing with a pipette. The plate was then resealed with aluminum seal and stored on dry ice until analyzed as described below.
The above described assays were analyzed by mass spectrometry according to one of the following two procedures:
The MS instrument is set to positive polarity, 2 GHz resolution, and low mass (1700) mode and allowed to equilibrate for 30 minutes. The instrument is then calibrated, switched to acquisition mode and the appropriate method loaded.
After another 30 minute equilibration time, a blank batch (i.e., buffer) is run to ensure equipment is operating properly. The samples are thawed at 37° C. for 10 minutes, briefly centrifuged, and transfer to the bench top. Wells A1 and H12 are spiked with 1 uL 500 uM internal standard peptide, and the plates centrifuged at 2000×g for 5 minutes. The method is then run and masses of each individual well recorded.
The masses (for which integration data is desired) for each well are pasted into the platemap and exported from the analysis. Masses for the internal standards are exported as well. The data at 50 ppm is extracted for the +19 charge state, and identity of well A1 is assigned using the internal standard spike and integrated. Peak data is exported as a TOF list and the above steps are repeated individually, for the +20, 21, 22, 23, 24, and 25 charge states.
The masses and peak intensities of KRAS G12C protein species were measured using a Dionex RSLCnano system (Thermo Scientific) connected to a Q Exactive Plus mass spectrometer (Thermo Scientific).
[…] of sample was each loaded onto a Aeris™ 3.6 μm WIDEPORE C4 200 Å, LC Column 50×2.1 mm column maintained at 40° C. at a flow rate of 600 μl min^−1 with […] (0.1% formic acid in acetonitrile). The liquid chromatography conditions were 20% solvent B for 1 min, 20% to 60% solvent B for 1.5 min, 60% to 90% solvent for 0.5 min, 90% solvent B for 0.2 min, 90% to 20% solvent B for 0.2 min, and then equilibrated for 1.6 min before the following sample injection. The flow rate was maintained at 600 μl min^−1 throughout the sample analysis.
The mass spectrometer was operated in profile mode at a resolution of 17500, 5 microscans, using 50 msec max injection time and an AGC target of 1e6, and a full mass range from 800-1850 m/z was recorded. The HCD trapping gas was optimized for maximum sensitivity for intact proteins. […]

SMILES	Binding %
C=CC(=O)N1CCN(c2nc(OC3CN(C4CCOCC4)C3)nc3c(F)c(-c4c(O)cccc4F)c(Cl)cc23)CC1 [Example I-186, 1-(4-(6-chloro-8-fluoro-7-(2-fluoro-6-hydroxyphenyl)-2-((1-(tetrahydro-2H-pyran-4-yl)azetidin-3-yl)oxy)quinazolin-4-yl)piperazin-1-yl) prop-2-en-1-one]	++ (++ indicates binding activity from 50 to 90%)
C=CC(=O)N1CCN(c2nc(NC3CCN(C4CC4)CC3)nc3c(F)c(-c4c(C)ccc5cn[nH]c45)c(Cl)cc23)CC1 [Example I-196, 1-(4-(6-chloro-2-((1-cyclo-propylpiperidin-4-yl)amino)-8-fluoro-7-(6-methyl-1H-indazol-7-yl)quinazolin-4-yl)piperazin-1-yl) prop-2-en-1-one]	++ (++ indicates binding activity from 50 to 90%)
C=CC(=O)N1CCN(c2nc(OCCN(CC)CC)nc3c(F)c(-c4c(C)ccc5cn[nH]c45)c(Cl)cc23)CC1 [Example I-183, 1-(4-(6-chloro-2-(2-(diethyl-amino)ethoxy)-8-fluoro-7-(6-methyl-1H-indazol-7-yl)quinazolin-4-yl)piperazin-1-yl) prop-2-en-1-one]	+++ (+++ indicates binding activity greater than 90%)
C=CC(=O)N1CCN(c2nc(CCNc3ccccn3)nc3c(F)c(-c4c(O)cccc4F)c(Cl)cc23)CC1 [Example I-201, 1-(4-(6-chloro-8-fluoro-7-(2-fluoro-6-hydroxyphenyl)-2-(2-(pyridin-2-ylamino)ethyl)quinazolin-4-yl)piperazin-1-yl) prop-2-en-1-one]	++ (++ indicates binding activity from 50 to 90%)
C=CC(=O)N1CCN(c2nc(CNc3ccccn3)nc3c(F)c(-c4c(O)cccc4F)c(Cl)cc23)CC1 [Example I-199, 1-(4-(6-chloro-8-fluoro-7-(2-fluoro-6-hydroxyphenyl)-2-((pyridin-2-ylamino)methyl)quinazolin-4-yl)piperazin-1-yl) prop-2-en-1-one]	+++ (+++ indicates binding activity greater than 90%)
C=CC(=O)N1CCN(c2nc(OCCC3CCN(C4CC4)CC3)nc3c(F)c(-c4c(O)cccc4F)c(Cl)cc23)CC1 [Example I-192, 1-(4-(6-chloro-2-(2-(1-cyclopropyl-piperidin-4-yl)ethoxy)-8-fluoro-7-(2-fluoro-6-hydroxyphenyl)quinazolin-4-yl)piperazin-1-yl) prop-2-en-1-one]	+++ (+++ indicates binding activity greater than 90%)
C=CC(=O)N1CCN(c2nc(N3CCOCC3)nc3c(F)c(-c4c(O)cccc4F)c(Cl)cc23)CC1 [Example I-47, 1-(4-(6-chloro-8-fluoro-7-(2-fluoro-6-hydroxyphenyl)-2-morpholino-quinazolin-4-yl)piperazin-1-yl)prop-2-en-1-one]	+++ (+++ indicates binding activity greater than 90%)
C=CC(=O)N1CCN(c2nc(OCCN3CCOCC3)nc3c(F)c(-c4c(O)cccc4F)c(Cl)cc23)CC1 [Example I-10, 1-(4-(6-chloro-8-fluoro-7-(2-fluoro-6-hydroxyphenyl)-2-(2-morpholino-ethoxy)quinazolin-4-yl)piperazin-1-yl)prop-2-en-1-one]	+++ (+++ indicates binding activity greater than 90%)
C=CC(=O)N1CCN(c2nc(OCCN(CC)CC)nc3c(F)c(-c4c(O)cccc4F)c(Cl)cc23)CC1 (atropisomer, axis not shown) [Example I-87, (S)-1-(4-(6-chloro-2-(2-(diethylamino)ethoxy)-8-fluoro-7-(2-fluoro-6-hydroxyphenyl)quinazolin-4-yl)piperazin-1-yl) prop-2-en-1-one]	+++ (+++ indicates binding activity greater than 90%)
C=CC(=O)N1CCN(c2nc(NC3CCN(C4CC4)CC3)nc3c(F)c(-c4c(O)cccc4F)c(Cl)cc23)CC1 [Example I-72, 1-(4-(6-chloro-2-(1-cyclopropyl-piperidin-4-ylamino)-8-fluoro-7-(2-fluoro-6-hydroxyphenyl)quinazolin-4-yl)piperazin-1-yl) prop-2-en-1-one]	+++ (+++ indicates binding activity greater than 90%)
C=CC(=O)N1CCN(c2nc(OCC(F)(F)c3ccccn3)nc3c(F)c(-c4c(O)cccc4F)c(Cl)cc23)CC1 [Example I-124, 1-(4-(6-chloro-2-(2,2-difluoro-2-(pyridin-2-yl)ethoxy)-8-fluoro-7-(2-fluoro-6-hydroxyphenyl)quinazolin-4-yl)piperazin-1-yl) prop-2-en-1-one]	+++ (+++ indicates binding activity greater than 90%)
C=CC(=O)N1CCN(c2nc(OCCN3CC(F)(F)C3)nc3c(F)c(-c4c(O)cccc4F)c(Cl)cc23)CC1 [Example I-36, 1-(4-(6-chloro-2-(2-(3,3-difluoroazetidin-1-yl)ethoxy)-8-fluoro-7-(2-fluoro-6-hydroxyphenyl)quinazolin-4-yl)piperazin-1-yl) prop-2-en-1-one]	+++ (+++ indicates binding activity greater than 90%)
C=CC(=O)N1CCN(c2nc(OCCc3ncccn3)nc3c(F)c(-c4c(C)ccc5[nH]ncc45)c(Cl)cc23)CC1 [Example I-139, 1-(4-(6-chloro-8-fluoro-7-(5-methyl-1H-indazol-4-yl)-2-(2-(pyrimidin-2-yl)ethoxy)quinazolin-4-yl)piperazin-1-yl) prop-2-en-1-one]	+++ (+++ indicates binding activity greater than 90%)
C=CC(=O)N1CCN(c2nc(OCCN3CCC(F)(F)C3)nc3c(F)c(-c4c(O)cccc4F)c(Cl)cc23)CC1 [Example I-30, 1-(4-(6-chloro-2-(2-(3,3-difluoro-pyrrolidin-1-yl)ethoxy)-8-fluoro-7-(2-fluoro-6-hydroxyphenyl)quinazolin-4-yl)piperazin-1-yl) prop-2-en-1-one]	+++ (+++ indicates binding activity greater than 90%)
C=CC(=O)N1CCN(c2nc(N3CC4(CN(C)C4)C3)nc3c(F)c(-c4c(C)ccc5[nH]ncc45)c(Cl)cc23)CC1 [Example I-157, 1-(4-(6-chloro-8-fluoro-7-(5-methyl-1H-indazol-4-yl)-2-(6-methyl-2,6-diazaspiro [3.3]heptan-2-yl)quinazolin-4-yl)piperazin-1-yl) prop-2-en-1-one]	+++ (+++ indicates binding activity greater than 90%)
C=CC(=O)N1CCN(c2nc(NC3CCN(C(C)C)CC3)nc3c(F)c(-c4cc(O)cc5ccccc45)c(Cl)cc23)CC1 [Example I-77, 1-(4-(6-chloro-8-fluoro-7-(3-hydroxy-naphthalen-1-yl)-2-(1-isopropyl-piperidin-4-ylamino)quinazolin-4-yl)piperazin-1-yl)prop-2-en-1-one]	+++ (+++ indicates binding activity greater than 90%)

Same assay, conditions: covalent binding to KRAS G12C; compounds of structure (III)

SMILES	Binding %
C=CC(=O)N1CCN(c2ncnc3c(F)c(-c4c(F)cccc4OC)c(Cl)cc23)[C@H](C)C1 [III-13, 1-((3R)-4-(6-chloro-8-fluoro-7-(2-fluoro-6-methoxy-phenyl)quinazolin-4-yl)-3-methyl-piperazin-1-yl)prop-2-en-1-one]	+ (+ indicates binding activity up to 50%)
C=CC(=O)N1[C@H](C)CN(c2ncnc3c(F)c(-c4c(O)cccc4F)c(Cl)cc23)C[C@@H]1C (atropisomer, axis not shown) [III-6]	+++ (+++ indicates binding activity greater than 90%)
C=CC(=O)N1CCN(c2ncnc3c(F)c(-c4c(O)cccc4F)c(Cl)cc23)C(=O)C1 [III-38, 4-acryloyl-1-(6-chloro-8-fluoro-7-(2-fluoro-6-hydroxy-phenyl)quinazolin-4-yl) piperazin-2-one]	++ (++ indicates activity from 50% to 90%)
